From patent publication US10829520B2, “Beta-hairpin peptidomimetics” (POLYPHOR AG, priority 2015, dated 2020)
Where a SMILES comes first, the peptide text is derived from it. Bridges are numbered along the chain shown (N, C = ends). Roman numbers before positions name the chains, in order. [ ]: non-standard residue; d: D form. The star is where a group is joined. NαAmidinoTrp = N=C(N)N[C@@H](Cc1c[nH]c2ccccc12)C(=O)*; Tle = CC(C)(C)[C@H](N)C(=O)O; dDab = NCC[C@@H](N)C(=O)O; Nle = CCCC[C@H](N)C(=O)O; Orn = NCCC[C@H](N)C(=O)O; Dab = NCC[C@H](N)C(=O)O; dAze = O=C(O)[C@H]1CCN1; Dap = NC[C@H](N)C(=O)O; Aib = CC(C)(N)C(=O)O

What was measured:
Format in all cases: cell-based
[1] = system: Acinetobacter baumannii 872842; details: 872842
[2] = system: Acinetobacter baumannii DSM 30008; details: DSM 30008
How it was run: (§1)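 CLSI broth microdilution in cation-adjusted Mueller-Hinton II broth with 0.002% Polysorbate 80, inoculum appr. 10^6 CFU/mL, peptides in serial two-fold dilutions. MIC (μg/mL) is the lowest concentration with no visible growth after 18-20 hours at 35° C.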

Escherichia coli 926415 = details: 926415
[3] = system: Escherichia coli ATCC 25922; details: ATCC 25922
How it was run: as §1

[4] = system: Klebsiella pneumoniae 968733; details: 968733
[5] = system: Klebsiella pneumoniae SSI #3010; details: SSI #3010
How it was run: as §1

[6] = system: Pseudomonas aeruginosa ATCC 27853; details: ATCC 27853
How it was run: as §1

[7] = system: human red blood cells (hRBC); assay: Hemolysis of human red blood cells; details: red cells of human, 1 h
How it was run: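 Hemolysis was read as supernatant absorbance at 540 nm and expressed as a percentage of Triton X-100 (2.5%) lysis. Washed human red cells (20% v/v) had been exposed to each peptide at 100 μg/mL for 1 h at 37° C.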

| Structure (SMILES) | Acinetobacter baumannii 872842 MIC [1] [µg/mL] | Acinetobacter baumannii DSM 30008 MIC [2] [µg/mL] | Escherichia coli 926415 MIC (Escherichia coli 926415) [µg/mL] | Escherichia coli ATCC 25922 MIC [3] [µg/mL] | Klebsiella pneumoniae 968733 MIC [4] [µg/mL] | Klebsiella pneumoniae SSI #3010 MIC [5] [µg/mL] | Pseudomonas aeruginosa ATCC 27853 MIC [6] [µg/mL] | Hemolysis at 100 μg/mL ([7]; 100 μg/mL) [%] | Hemolysis at 100 μg/mL [7]; 100 [%] |
| --- | --- | --- | --- | --- | --- | --- | --- | --- | --- |
| CC(C)C[C@@H]1NC(=O)[C@H](CO)NC(=O)[C@H](Cc2ccc(O)cc2)NC(=O)[C@@H]2CCCN2C(=O)[C@H]2CCCN2C(=O)[C@H](Cc2ccc(O)cc2)NC(=O)[C@H](C)NC(=O)[C@H](C(C)C)NC(=O)[C@@H](NC(=O)[C@@H](N)Cc2c[nH]c3ccccc23)CSSC[C@@H](C(=O)NCC(=O)N[C@@H](CCN)C(=O)N[C@H](C(=O)N[C@@H](CCN)C(=O)N[C@H]2CCNC(=O)[C@H]([C@@H](C)O)NC(=O)[C@H](CCN)NC(=O)[C@H](CCN)NC(=O)[C@H](CC(C)C)NC(=O)[C@@H](CC(C)C)NC(=O)[C@H](CCN)NC2=O)[C@@H](C)O)NC1=O [Ex. 153] (H-WCVAY[dP]PYSLCG[Dab]T[Dab][Dab][Dab][dL]L[Dab][Dab]T; disulfide 2-11; lactam 16-C) | 0.03125 | 0.125 | 0.125 | 0.0625 | 0.0625 | 0.0625 | 0.5 | <1 | – |
| CCCC[C@@H]1NC(=O)[C@@H]2CCCN2C(=O)[C@H]2CCCN2C(=O)[C@H](CO)NC(=O)[C@H](C)NC(=O)[C@H](C(C)(C)C)NC(=O)[C@@H](NC(=O)[C@H](Cc2c[nH]c3ccccc23)NC(C)=O)CSSC[C@@H](C(=O)N[C@@H](CCN)C(=O)N[C@H](C(=O)N[C@@H](CCN)C(=O)N[C@H]2CCNC(=O)[C@H]([C@@H](C)O)NC(=O)[C@H](CNC(=O)[C@@H](N)CCC(=O)O)NC(=O)[C@H](CCN)NC(=O)[C@H](CC(C)C)NC(=O)[C@@H](Cc3ccccc3)NC(=O)[C@H](CCN)NC2=O)[C@@H](C)O)NC(=O)[C@H](Cc2ccc(O)cc2)NC(=O)[C@H](CO)NC1=O [Ex. 25] (Ac-WC[Tle]AS[dP]P[Nle]SYC[Dab]T[Dab][Dab][Dab][dF]L[Dab][Dap](Glu)T; disulfide 2-11; lactam 15-C) | 1 | 1 | 3 | 2 | 8 | 4 | 4 | 3 | – |
| CC(C)C[C@@H]1NC(=O)[C@@H](Cc2ccccc2)NC(=O)[C@H](CCN)NC(=O)[C@@H](NC(=O)[C@H](CCN)NC(=O)[C@@H](CCN)NC(=O)[C@@H](NC(=O)[C@H](CCCN)NC(=O)[C@@H]2CSSC[C@H](NC(=O)[C@@H](N)Cc3c[nH]c4ccccc34)C(=O)N[C@@H](C(C)C)C(=O)N[C@@H](C)C(=O)N[C@@H](CO)C(=O)N3CCC[C@@H]3C(=O)N3CCC[C@H]3C(=O)N[C@@H](C(C)C)C(=O)N[C@@H](CO)C(=O)N[C@@H](Cc3ccc(O)cc3)C(=O)N2)[C@@H](C)O)CCNC(=O)[C@H]([C@@H](C)O)NC(=O)[C@H](CCNC(=O)[C@@H](N)CCCNC(=N)N)NC(=O)[C@H](CCN)NC1=O [Ex. 177] (H-WCVAS[dP]PVSYC[Orn]T[dDab][Dab][Dab][Dab][dF]L[Dab][Dab](Arg)T; disulfide 2-11; lactam 16-C) | 2 | 1 | 2 | 1 | 2 | 1 | 0.5 | 1.4 | – |
| CCCC[C@@H]1NC(=O)[C@@H]2CCCN2C(=O)[C@H]2CCCN2C(=O)[C@H](CO)NC(=O)[C@H](C)NC(=O)[C@H](C(C)(C)C)NC(=O)[C@@H](NC(=O)[C@H](Cc2c[nH]c3ccccc23)NC(C)=O)CSSC[C@@H](C(=O)N[C@@H](CCN)C(=O)NC(C)(C)C(=O)N[C@@H](CCN)C(=O)N[C@H]2CCNC(=O)[C@H]([C@@H](C)O)NC(=O)[C@H](CCN)NC(=O)[C@H](CCN)NC(=O)[C@H](CC(C)C)NC(=O)[C@@H](Cc3ccccc3)NC(=O)[C@H](CCN)NC2=O)NC(=O)[C@H](Cc2ccc(O)cc2)NC(=O)[C@H](CO)NC1=O [Ex. 23] (Ac-WC[Tle]AS[dP]P[Nle]SYC[Dab][Aib][Dab][Dab][Dab][dF]L[Dab][Dab]T; disulfide 2-11; lactam 15-C) | 0.5 | 0.5 | 0.5 | 0.25 | 2 | 0.25 | 0.5 | 1 | – |
| CC(C)C[C@@H]1NC(=O)[C@@H](Cc2ccccc2)NC(=O)[C@H](CCN)NC(=O)[C@@H](NC(=O)[C@H](CCN)NC(=O)[C@H](CCCN)NC(=O)[C@@H]2CSSC[C@H](NC(=O)[C@@H](N)Cc3c[nH]c4ccccc34)C(=O)N[C@@H](C(C)(C)C)C(=O)N[C@H]3CC(=O)NCC[C@H](NC(=O)[C@H](C(C)C)NC(=O)[C@@H]4CCCN4C(=O)[C@H]4CCN4C(=O)[C@H]([C@@H](C)O)NC3=O)C(=O)N[C@@H](Cc3ccc(O)cc3)C(=O)N2)CCNC(=O)[C@H]([C@@H](C)O)NC(=O)[C@H](CCN)NC(=O)[C@H](CCN)NC1=O [Ex. 191] (H-WC[Tle]DT[dAze]PV[Dab]YC[Orn][Dab][Dab][Dab][dF]L[Dab][Dab]T; disulfide 2-11; lactam 4-9, 14-C) | 0.25 | 0.5 | 0.125 | 0.5 | 0.5 | 0.25 | 1 | 6 | – |
| CC(C)C[C@@H]1NC(=O)[C@@H](CC(C)C)NC(=O)[C@H](CCN)NC(=O)[C@@H](NC(=O)[C@H](CCN)NC(=O)[C@H](CCN)NC(=O)[C@H](CCN)NC(=O)CNC(=O)[C@H](CCN)NC(=O)[C@H](Cc2ccc(O)cc2)NC(=O)[C@@H]2CCNC(=O)C[C@H](NC(=O)[C@@H](NC(=O)[C@H](CCN)NC(=O)[C@H](Cc3c[nH]c4ccccc34)NC(=N)N)C(C)C)C(=O)N[C@@H](Cc3ccc(O)cc3)C(=O)N3CCC[C@@H]3C(=O)N3CCC[C@H]3C(=O)N[C@@H](C(C)C)C(=O)N2)CCNC(=O)[C@H]([C@@H](C)O)NC(=O)[C@H](CCN)NC(=O)[C@H](CCN)NC1=O [Ex. 172] (NαAmidinoTrp-[Dab]VDY[dP]PV[Dab]Y[Dab]G[Dab][Dab][Dab][Dab][Dab][dL]L[Dab][Dab]T; lactam 3-8, 15-C) | 0.25 | 0.0625 | 0.5 | 0.0625 | 0.5 | 0.125 | 0.125 | – | 1 |
| CC[C@H](C)[C@@H]1NC(=O)[C@@H]2CCCN2C(=O)[C@H]2CCCN2C(=O)[C@H](Cc2ccc(O)cc2)NC(=O)[C@@H](NC(=O)[C@@H](NC(=O)[C@H](CCN)NC(=O)[C@H](CC(C)C)NC(C)=O)C(C)C)CSSC[C@@H](C(=O)N[C@@H](Cc2ccc(O)cc2)C(=O)N[C@@H](CCN)C(=O)N[C@@H](CCCN)C(=O)N[C@H](CCN)C(=O)N[C@@H](CCN)C(=O)N[C@H]2CCNC(=O)[C@H]([C@@H](C)O)NC(=O)[C@H](CCN)NC(=O)[C@H](CCN)NC(=O)[C@H](CC(C)C)NC(=O)[C@@H](Cc3ccccc3)NC(=O)[C@H](CCN)NC2=O)NC1=O [Ex. 119] (Ac-L[Dab]VCY[dP]PICY[Dab][Orn][dDab][Dab][Dab][Dab][dF]L[Dab][Dab]T; disulfide 4-9; lactam 15-C) | 0.5 | 0.5 | 1 | 0.25 | 4 | 1 | 0.25 | 0.5 | – |
| CCCC[C@@H]1NC(=O)[C@@H]2CCCN2C(=O)[C@H]2CCCN2C(=O)[C@H](CO)NC(=O)[C@H](C)NC(=O)[C@H](C(C)(C)C)NC(=O)[C@H](CCN)NC(=O)[C@H](Cc2c[nH]c3ccccc23)NC(=O)[C@H](CCN)NC(=O)[C@H](CCC(=O)N[C@H](C(=O)N[C@@H](CCN)C(=O)N[C@H]2CCNC(=O)[C@H]([C@@H](C)O)NC(=O)[C@H](CCN)NC(=O)[C@H](CCN)NC(=O)[C@H](CC(C)C)NC(=O)[C@@H](Cc3ccccc3)NC(=O)[C@H](CCN)NC2=O)[C@@H](C)O)NC(=O)[C@H](CCCN)NC(=O)[C@H](CCN)NC(=O)[C@H](Cc2ccc(O)cc2)NC(=O)[C@H](CO)NC1=O [Ex. 6] (I: cyclo([Nle]SY[Dab][Orn]E[Dab]W[Dab][Tle]AS[dP]P) / II: T[Dab][Dab][Dab][dF]L[Dab][Dab]T; amide I:6-II:N; lactam II:3-II:C) | 2 | 2 | 1 | 0.25 | 2 | 0.5 | 0.5 | – | <1 |
